The subject of one assay is HIV-1 IIIB. As to the kind of experiment: microbe, parasite or virus in culture. In kind it is cell-based. The method, boiled down:
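cMAGI β-galactosidase reporter cells or MT2 cells infected at 0.2-0.5 MOI with wild-type or resistant HIV-1 and incubated 4 days at 37 °C with varying compound concentrations. Infection scored by counting X-gal-stained blue cMAGI cells; MT2 syncytium formation assessed microscopically, cytotoxicity by trypan blue exclusion.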

The subject of assay [1] is HIV-1 AZT resistant virus. It counts as cell-based. The following applies: Table 4; read-out: EC50 AZT^Res. The method, then: (§1) Inhibition of HIV-1 cell replication was tested using the cMAGI assay, which is based on the ability of HIV-1 TAT to transactivate the expression of an integrated β-galactosidase reporter gene driven by the HIV-LTR (B. Chackeria et al., J. Virol., (1997) 71, 3932; Collins et al., Nat. Med. (2000) 6, 475). The β-galactosidase reporter is modified to remain localized in the nucleus where it can be detected with the X-gal (5-bromo-4-chloro-3indoyl-β-D-galactopyranoside) substrate as an intense nuclear stain within a few days of infection.
(§2) HIV-1 isolates were propagated by subculture in MT2 cells (Litovchick et al. (2001) supra). Aliquots of cell-free culture supernatants were used as viral inoculum. PAACs were dissolved in the RPMI 1640 medium. Cytotoxicity determinations were carried out in MT2 cells by trypan blue exclusion assay. Viral inhibition was determined by incubating MT2 or cMAGI HIV-1 reporter cells with 0.2-0.5 multiplicity of infection of HIV-1 wild type or resistant virus for 4 days at 37° C. in the presence or absence of various concentrations of pAACs. HIV-1 infection of cMAGI cells was determined by counting the number of HIV-1-infected cells (stained blue). The cytopathic effects of the viral infection of MT2 cells were also analyzed by microscopic assessment of syncytium formation.

The next assay deals with HIV-1 Ba-L. It counts as cell-based. As to conditions: Table 4. The method, then: as §1, §2
Assay [2] concerns HIV-1 NeoR6 resistant virus. In kind it is cell-based. The following applies: read-out: EC50 NeoR6^Res; Table 4. The protocol: as §1, §2
Assay [3] concerns HIV-1 Protease resistant virus. In kind it is cell-based. The following applies: Table 4; read-out: EC50 Protease^Res. The method, then: as §1, §2
In assay [4] the test system is HIV-1 clinical isolate Clade A. It counts as cell-based. The protocol:
as §1, §2

For assay [5], the system named is HIV-1 clinical isolate Clade C. It counts as cell-based. The method, then:
as §1, §2

Another assay concerns the target T1, CXCR4 (Homo sapiens, UniProt P61073).
T1 construct: incubated at 4° C. with anti-CXCR4 mAb, 12G5, conjugated to phycoerithrine (PE); endogenous in cells; host or cells: MT2 cells
Put plainly: Competition with 12G5 mAb binding to CXCR4 on MT2 cells (flow cytometry). Put shortly: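 MT2 cells (0.5×10^6) were incubated for 30 min at 4 °C with PE-conjugated 12G5 anti-CXCR4 mAb, alone or with varying concentrations of pAACs or arginine peptides, in ice-cold PBS/0.1% azide. Cells were then fixed in 1% paraformaldehyde and analysed by flow cytometry (10,000 events), with an isotype control defining non-specific fluorescence.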
A general note: In flow cytometry, cells or beads pass a laser one at a time.

Assay [6] has as its system Streptococcus bovis ATCC 9809. Put plainly: MIC, broth microdilution. In kind it is cell-based. As to conditions: Gram positive reference strain. The method, then: (§3) Minimal Inhibition Concentration (MIC) measurements: The Minimal Inhibitory Concentration (MIC) was generally determined by the Broth Microdilution method (based on the protocol described in Clinical and Laboratory Standard Institute (CLSI) NCCLS (2003) M7-A6), as follows:
(§4) A stock solution of each of the tested compounds was prepared by diluting the compound to a 2,560 μg/ml concentration with an appropriate solvent. The stock solution was then serially 2-fold diluted in 96-well microdilution trays using Cation-Adjusted Mueller-Hinton Broth (CAMHB) until reaching the desired range of concentrations, whereas each well contained double the final working concentration. Each row further had one growth control well (medium+inoculum only), and one sterility control well (medium+tested compound). Plates were stored at −70° C. until used.
(§5) The tested microorganisms were used as fresh overnight cultures on blood agar (for gram-positive organisms) or MacConkey agar (for gram-negatives). A standardized inoculum suspension was prepared by the direct colony suspension method, using sterile saline (equivalent to a 0.5 McFarland standard).
(§6) Thus, 50 μl of the inoculum suspension were added to each tested well (except for the sterility control well), and […] was performed during 18-24 hours (depending on the tested microorganism or compound) at 35° C.
On the technique in general: Broth dilution looks for growth in wells or tubes with falling amounts of substance.

The subject of another assay is E. coli U3075921. Put plainly: MIC, broth microdilution. In kind it is cell-based, Escherichia coli. The following applies: clinical isolate, Table 7. The protocol:
as §3, §4, §5, §6

Assay [7] has as its system Staphylococcus aureus ATCC 24213. As to conditions: Gram positive reference strain.
The subject of the next assay is S. aureus MRSA. As to conditions: Gram positive clinical isolate.
A further assay relates to S. epidermidis MRSE. As to conditions: Gram positive clinical isolate.
The test system of assay [8] is Acinetobacter baumannii ATCC 19606. The following applies: Gram negative reference strain.
The test system of assay [9] is Moraxella catarrhalis ATCC 25238 (Branhamella). As to conditions: Gram negative reference strain.
Another assay deals with E. Coli-ESBL negative. As to conditions: Gram negative clinical isolate.
For assay [10], the system named is K. pneumoniae-ESBL positive. The following applies: Gram negative clinical isolate.
The subject of the next assay is Serratia marcescens. As to conditions: Gram negative clinical isolate.
For another assay, the system named is Enterobacter aerogenes. The following applies: Gram negative clinical isolate.
The subject of assay [11] is P. aeruginosa-gentamicin^r, meropenem^r. The following applies: Gram negative clinical isolate.
Assay [12] concerns A. baumannii-amikacin^s, meropenem^s. As to conditions: Gram negative clinical isolate.
The subject of assay [13] is A. baumannii-amikacin^r, meropenem^r. As to conditions: Gram negative clinical isolate.
The next assay deals with E. coli U23773^r. As to conditions: Gram negative clinical isolate.

Values joined by “and” are separate entries in the source; they are usually repeats but may differ in a detail not shown here. Equal entries are not always repeated. Where two headings read alike, the source gives them in different places. Bounds are passed on as bounds.

T1 sequence (P61073 whole entry): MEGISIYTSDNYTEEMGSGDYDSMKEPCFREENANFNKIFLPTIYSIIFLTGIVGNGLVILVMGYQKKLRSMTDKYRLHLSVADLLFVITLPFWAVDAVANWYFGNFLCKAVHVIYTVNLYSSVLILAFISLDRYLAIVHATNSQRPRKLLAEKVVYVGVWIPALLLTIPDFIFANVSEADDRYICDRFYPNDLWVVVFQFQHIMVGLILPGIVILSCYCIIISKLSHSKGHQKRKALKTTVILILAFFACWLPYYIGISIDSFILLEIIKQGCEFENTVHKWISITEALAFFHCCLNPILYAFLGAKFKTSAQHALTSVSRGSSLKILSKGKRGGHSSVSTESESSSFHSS

As a reminder, the EC50 is the concentration needed to bring the measured effect to its halfway point. For orientation: inhibition means how much of the control response was suppressed. As to `CC(=O)N[C@H](CCCNC(=N)N)C(=O)N[C@H](CCCNC(=N)N)C(=O)N[C@H](CCCNC(=N)N)C(=O)N[C@H](CCCNC(=N)N)C(=O)N[C@H](CCCNC(=N)N)C(=O)N[C@H](CCCNC(=N)N)C(=O)N[C@H](CCCNC(=N)N)C(=O)N[C@H](CCCNC(=N)N)C(=O)N[C@H](CCCNC(=N)N)C(=O)O` [Compound 12, D-Arg-9-mer-NHAc], the EC50 with HIV-1 IIIB (Table 4, read-out: EC50 IIIB) is 1500 ± 600 nM; in [1] it was 9700 ± 5900 nM; in the assay with HIV-1 Ba-L, above 50000 nM; in [2] it was 2000 ± 1200 nM; in [3], 1400 ± 600 nM; in assay [4] (clinical isolate Clade A), 2200 ± 300 nM. A half-maximal effect in assay [5] (clinical isolate Clade C) (EC50) was put at 1600 ± 400 nM. The inhibition at 2 µM at CXCR4 (2 μM, read-out: % Inhibition of 12G5 mAb binding to CXCR4) stood at 81.3%. Also, the inhibition at 10 µM at CXCR4 (10 μM, read-out: % Inhibition of 12G5 mAb binding to CXCR4) was found to be 99.6%. For the same molecule, the “Minimum Inhibitory Concentration” value was 128.0 mg/L in assay [6]; 96.0 mg/L in the assay on E. coli U3075921; 128.0 mg/liter and 63.82 μM in assay [7]; > 128.0 mg/liter and 63.82 μM in the assay with S. aureus MRSA; 96.0 mg/liter and 47.86 μM in the assay with S. epidermidis MRSE; > 256.0 mg/liter and 127.64 μM in [8]. Besides, the “Minimum Inhibitory Concentration” value was 16.0 mg/liter and 7.98 μM in assay [9]; 128.0 mg/liter and 63.82 μM in the assay with E. Coli-ESBL negative; 48.0 mg/liter and 23.93 μM in assay [10]; > 256.0 mg/liter and 127.64 μM in the assay with Serratia marcescens; 128.0 mg/liter and 63.82 μM with Enterobacter aerogenes; > 256.0 mg/liter and 127.64 μM in assay [11]. Further, the “Minimum Inhibitory Concentration” value in assay [12] is 256.0 mg/liter and 127.64 μM; in assay [13] it was > 256.0 mg/liter and 127.64 μM; in the assay on E. coli U23773^r, 64.0 mg/L.

As to `NCC1OC(OC2C(CO)OC(OC3C(O)C(N)CC(N)C3OC3OC(CN)C(O)C(O)C3N)C2O)C(N)C(O)C1O` (stereo not drawn) [Neomycin], the EC50 in the assay with HIV-1 IIIB (Human immunodeficiency virus 1, MT2, Table 3, against HIV-1 IIIB virus, read-out: EC50) is above 200000 nM. In addition, the “Minimum Inhibitory Concentration” value in [13] amounted to 105.61 µM; in the assay with E. coli U23773^r, 140.81 µM.

Turning to D-Arg-9-mer-neomycin [Compound 14], the EC50 in the assay with HIV-1 IIIB (Table 4, read-out: EC50 IIIB) is 1300 ± 400 nM; in [1], 6600 ± 5900 nM; in the assay with HIV-1 Ba-L, above 50000 nM; in assay [2], 2000 ± 500 nM; in assay [3], 1500 ± 400 nM; in assay [4] (Table 4, read-out: EC50 Clade A), 2100 ± 400 nM. For the same molecule, the EC50 in assay [5] (Table 4, read-out: EC50 Clade C) was 1200 ± 500 nM. The “% Inhibition of 12G5 mAb binding to CXCR4” value was found to be 95.3% on CXCR4 (2 μM) and 100% at CXCR4 (10 μM). Also, the “Minimum Inhibitory Concentration” value in assay [6] is 24.0 mg/L; with E. coli U3075921 it was 48.0 mg/liter and 16.54 μM; in assay [7], 32.0 mg/liter and 11.02 μM; in the assay on S. aureus MRSA, 32.0 mg/liter and 11.02 μM; with S. epidermidis MRSE it was 8.0 mg/liter and 2.76 μM; in assay [8], > 256.0 mg/liter and 88.22 μM. Further, the “Minimum Inhibitory Concentration” value in [9] was 8.0 mg/liter and 2.76 μM; in the assay on E. Coli-ESBL negative, 16.0 mg/liter and 5.51 μM; in assay [10] it was 32.0 mg/liter and 11.02 μM; in the assay on Serratia marcescens it was 64.0 mg/liter and 22.05 μM; in the assay with Enterobacter aerogenes, 32.0 mg/liter and 11.02 μM; in [11], > 156.0 mg/liter and 53.76 μM. For the same molecule, the “Minimum Inhibitory Concentration” value in assay [12] is 128.0 mg/liter and 44.11 μM; in assay [13] it was > 256.0 mg/liter and 88.22 μM; with E. coli U23773^r, 32.0 mg/L.

These data come from US20060166867A1, “Novel conjugates of polysaccharides and uses thereof” (priority 2003, published 2006).
